In paper PMC6523382 (Pharmaceutics, 2019):
Where two headings read alike, the source gives them in different places.

Legend:
OCT1 [1] = target: T1, OCT1 (Homo sapiens, UniProt O15245); assay: Inhibition of OCT1-mediated [14C]metformin uptake in HEK293-OCT1 cells; type: cell-based; parameters: host or cells: HEK293
T1 sequence (O15245 1-554): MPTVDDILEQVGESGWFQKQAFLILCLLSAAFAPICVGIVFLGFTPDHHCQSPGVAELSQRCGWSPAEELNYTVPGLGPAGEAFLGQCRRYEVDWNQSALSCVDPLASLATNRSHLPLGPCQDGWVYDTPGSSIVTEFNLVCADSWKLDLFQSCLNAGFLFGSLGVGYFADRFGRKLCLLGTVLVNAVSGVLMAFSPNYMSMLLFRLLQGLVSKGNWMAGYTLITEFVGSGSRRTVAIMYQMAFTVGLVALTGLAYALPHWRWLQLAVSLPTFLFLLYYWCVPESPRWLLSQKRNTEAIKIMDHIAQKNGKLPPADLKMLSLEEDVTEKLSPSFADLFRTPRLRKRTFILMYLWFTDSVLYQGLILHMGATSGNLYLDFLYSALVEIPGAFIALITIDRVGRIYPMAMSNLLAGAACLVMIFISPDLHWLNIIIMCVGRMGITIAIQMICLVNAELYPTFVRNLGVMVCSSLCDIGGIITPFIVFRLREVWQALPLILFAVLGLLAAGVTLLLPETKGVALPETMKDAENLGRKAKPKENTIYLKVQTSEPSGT
Protocol: (§1) HEK293 cells overexpressing OCT1, OCT2, MATE1, and MATE2-K (HEK293-OCT1, -OCT2, MATE1, and MATE2-K, respectively; Corning, Tewksbury, MA, USA) were used and characterized as previously described. […] In HEK293-MATE1 or -MATE2-K cells, 2 mM sodium butyrate was also supplemented in the culture medium. […] Sigma, St. Louis, MO, USA) and incubated for 30 min in HBSS. In HEK293-MATE1, or -MATE2-K cells, 40 mM ammonium chloride was also added for the outwardly directed proton gradient. […] After the 5 min incubation, cells were washed three times with 200 µL of ice-cold HBSS immediately after placing the plates on ice. Then, the cells were lysed with 10% sodium dodecyl sulfate (SDS) and the cell lysates were mixed with Optiphase cocktail solution. Thereafter, the radioactivity of the cell lysates was measured using a liquid scintillation counter (Microbeta 2, Perkin Elmer Inc., Boston, MA, USA).

MATE2-K [2] = target: T2, MATE2-K (Homo sapiens, UniProt Q86VL8); assay: Inhibition of MATE2-K-mediated [14C]metformin uptake in HEK293-MATE2-K cells; type: cell-based; parameters: host or cells: HEK293; conditions: read-out: IC50 on MATE2-K-mediated metformin uptake, 10 µM [14C]metformin, 5 min
Protocol: as §1

OCT2 [3] = target: T3, OCT2 (Homo sapiens, UniProt O15244); conditions: read-out: IC50 for OCT2 reported in the literature; cited from earlier work
T3 sequence (O15244 1-555): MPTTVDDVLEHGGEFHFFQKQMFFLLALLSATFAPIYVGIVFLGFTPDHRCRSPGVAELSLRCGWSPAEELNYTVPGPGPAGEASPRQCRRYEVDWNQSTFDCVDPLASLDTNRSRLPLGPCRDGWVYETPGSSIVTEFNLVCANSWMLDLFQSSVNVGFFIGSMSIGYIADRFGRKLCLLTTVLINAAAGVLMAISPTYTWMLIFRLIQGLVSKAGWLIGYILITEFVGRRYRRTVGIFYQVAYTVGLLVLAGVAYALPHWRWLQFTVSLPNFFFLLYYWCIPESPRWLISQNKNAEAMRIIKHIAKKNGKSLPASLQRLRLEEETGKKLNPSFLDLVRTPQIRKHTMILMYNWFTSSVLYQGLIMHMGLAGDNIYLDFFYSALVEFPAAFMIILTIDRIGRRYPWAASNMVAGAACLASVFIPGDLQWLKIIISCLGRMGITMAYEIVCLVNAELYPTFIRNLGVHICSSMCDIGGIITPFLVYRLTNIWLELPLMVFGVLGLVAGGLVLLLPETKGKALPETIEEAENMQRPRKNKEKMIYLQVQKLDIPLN

OCT2 [4] = target: T3, OCT2; assay: Inhibition of OCT2-mediated [14C]metformin uptake in HEK293-OCT2 cells; type: cell-based; parameters: host or cells: HEK293
Protocol: as §1

OCT1 [5] = target: T1, OCT1; conditions: read-out: IC50 for OCT1 reported in the literature; cited from earlier work
MATE1 = target: T4, MATE1 (Homo sapiens, UniProt Q96FL8); conditions: read-out: IC50 for MATE1 reported in the literature; cited from earlier work
T4 sequence (Q96FL8 1-570): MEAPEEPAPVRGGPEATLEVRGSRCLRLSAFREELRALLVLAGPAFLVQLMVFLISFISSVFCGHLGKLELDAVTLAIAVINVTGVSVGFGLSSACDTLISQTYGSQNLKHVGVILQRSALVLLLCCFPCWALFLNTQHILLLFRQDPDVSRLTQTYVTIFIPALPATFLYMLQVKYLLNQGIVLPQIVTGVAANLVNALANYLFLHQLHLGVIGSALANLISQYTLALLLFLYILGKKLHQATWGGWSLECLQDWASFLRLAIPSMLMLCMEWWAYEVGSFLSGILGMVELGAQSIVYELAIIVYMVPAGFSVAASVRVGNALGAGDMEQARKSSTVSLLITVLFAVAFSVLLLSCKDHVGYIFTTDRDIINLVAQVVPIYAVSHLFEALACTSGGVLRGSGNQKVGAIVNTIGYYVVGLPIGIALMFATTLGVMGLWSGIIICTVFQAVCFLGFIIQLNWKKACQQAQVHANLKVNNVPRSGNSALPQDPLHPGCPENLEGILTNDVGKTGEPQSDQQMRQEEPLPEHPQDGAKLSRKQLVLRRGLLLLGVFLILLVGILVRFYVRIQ

MATE2-K [6] = target: T2, MATE2-K; conditions: read-out: IC50 for MATE2-K reported in the literature; cited from earlier work

T2 sequence (Q86VL8 1-566 isoform Q86VL8-3): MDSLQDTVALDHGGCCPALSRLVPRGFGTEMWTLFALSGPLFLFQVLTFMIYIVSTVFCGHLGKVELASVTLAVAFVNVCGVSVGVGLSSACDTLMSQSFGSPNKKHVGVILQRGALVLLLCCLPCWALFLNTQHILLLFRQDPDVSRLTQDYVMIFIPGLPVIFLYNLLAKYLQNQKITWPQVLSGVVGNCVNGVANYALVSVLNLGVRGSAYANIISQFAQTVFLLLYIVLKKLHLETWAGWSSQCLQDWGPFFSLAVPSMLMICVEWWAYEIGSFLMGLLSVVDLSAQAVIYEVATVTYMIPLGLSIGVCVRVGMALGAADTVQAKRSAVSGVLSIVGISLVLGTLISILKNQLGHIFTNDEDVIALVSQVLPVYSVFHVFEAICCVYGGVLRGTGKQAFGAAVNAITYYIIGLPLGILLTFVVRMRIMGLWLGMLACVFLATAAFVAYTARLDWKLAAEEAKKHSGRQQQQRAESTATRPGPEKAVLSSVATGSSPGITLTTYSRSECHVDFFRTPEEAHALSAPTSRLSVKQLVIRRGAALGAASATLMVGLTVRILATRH

## CN/C(=N/CCSCc1nc[nH]c1C)NC#N [cimetidine]
OCT1 [1]
  IC50: 61.8 µM
MATE2-K [2]
  IC50: 5.03 µM
OCT2 [3]
  IC50: 110 µM
OCT2 [4]
  IC50: 197 µM
OCT1 [5]
  IC50: 57 µM
MATE1
  IC50: 0.7 µM
MATE2-K [6]
  IC50: 4.8 µM
